This experiment has as its target hNPY1R (Homo sapiens (Human), UniProt P25929). In words: NPY1R binding assay (SK-N-MC membrane, [125I]-Peptide YY competition).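 Further: bound radioligand separated by filtration over GF/C filter plates and counted, Ki obtained by non-linear regression.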 To be noted: crude SK-N-MC membranes endogenously expressing NPY1R; [125I]-Peptide YY (human) 0.05 nM; 120 min at room temperature; read-out: hNPY1R binding Ki.
Chain of hNPY1R (P25929 whole entry): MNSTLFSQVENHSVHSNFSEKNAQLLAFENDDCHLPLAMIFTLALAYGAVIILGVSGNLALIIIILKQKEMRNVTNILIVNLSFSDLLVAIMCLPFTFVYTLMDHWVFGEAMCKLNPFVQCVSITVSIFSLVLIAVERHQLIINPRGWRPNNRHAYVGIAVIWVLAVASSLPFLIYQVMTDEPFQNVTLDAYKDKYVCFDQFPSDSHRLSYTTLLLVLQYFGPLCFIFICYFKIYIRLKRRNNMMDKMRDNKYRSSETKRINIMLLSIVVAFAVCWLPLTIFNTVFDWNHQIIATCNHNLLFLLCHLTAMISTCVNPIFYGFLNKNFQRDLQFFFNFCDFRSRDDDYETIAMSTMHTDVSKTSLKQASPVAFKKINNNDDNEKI
A word on the Ki: it is the dissociation constant of the complex between target and ligand, obtained from inhibition or displacement. Take `CCC(=O)NCCNC(=O)/N=C(/N)NCCC[C@@H](NC(=O)[C@H](c1ccc(OCCCNc2c(NCCCCCCNC(=O)CN3CCN(CC(=O)O)CCN(CC(=O)O)CCN(CC(=O)O)CC3)c(=O)c2=O)cc1)N1Cc2ccccc2C1)C(=O)NCc1c(F)cc(O)cc1F` [compound 37, 2,2′,2″-(10-(2-((6-((2-((3-(4-((1S,4R,Z)-9-amino-4-((2,6-difluoro-4-hydroxybenzyl)carbamoyl)-1-(isoindolin-2-yl)-2,11,16-trioxo-3,8,10,12,15-pentaazaoctadec-9-en-1-yl)phenoxy)propyl)amino)-3,4-dioxocyclobut-1-en-1-yl)amino)hexyl)amino)-2-oxoethyl)-1,4,7,10-tetraazacyclododecane-1,4,7-triyl)triacetic acid]: the Ki was < 10 nM.

In the case of `CCC(=O)NCCNC(=O)/N=C(/N)NCCC[C@@H](NC(=O)[C@H](c1cccc(NCCCNC(=O)[C@H](N)CCCCNC(=O)CN2CCN(CC(=O)O)CCN(CC(=O)O)CCN(CC(=O)O)CC2)c1)N1Cc2ccccc2C1)C(=O)NCc1ccc(O)cc1` [compound 25, 2,2′,2″-(10-(2-(((R)-5-amino-6-((3-((3-((1S,4R,Z)-9-amino-4-((4-hydroxybenzyl)carbamoyl)-1-(isoindolin-2-yl)-2,11,16-trioxo-3,8,10,12,15-pentaazaoctadec-9-en-1-yl)phenyl)amino)propyl)amino)-6-oxohexyl)amino)-2-oxoethyl)-1,4,7,10-tetraazacyclododecane-1,4,7-triyl)triacetic acid], the Ki was < 10 nM.

For the compound `CCC(=O)NCCNC(=O)/N=C(/N)NCCC[C@@H](NC(=O)[C@H](c1cccc(NCCCNC(=O)CCCCCNC(=O)CN2CCN(CC(=O)O)CCN(CC(=O)O)CCN(CC(=O)O)CC2)c1)N1Cc2ccccc2C1)C(=O)NCc1ccc(O)cc1` [compound 19, 2,2′,2″-(10-(2-((6-((3-((3-((1S,4R,Z)-9-amino-4-((4-hydroxybenzyl)carbamoyl)-1-(isoindolin-2-yl)-2,11,16-trioxo-3,8,10,12,15-pentaazaoctadec-9-en-1-yl)phenyl)amino)propyl)amino)-6-oxohexyl)amino)-2-oxoethyl)-1,4,7,10-tetraazacyclododecane-1,4,7-triyl)triacetic acid], the Ki is < 10 nM.

For the compound `CCC(=O)NCCNC(=O)/N=C(/N)NCCC[C@@H](NC(=O)[C@H](c1ccc(OCCCNC(=O)C[C@H]2NC(=O)[C@@H](CCNC(=O)CN3CCN(CC(=O)O)CCN(CC(=O)O)CCN(CC(=O)O)CC3)NC2=O)cc1)N1Cc2ccccc2C1)C(=O)NCc1c(F)cc(O)cc1F` [compound 52, 2,2′,2″-(10-(2-((2-((2R,5R)-5-(2-((3-(4-((1S,4R,Z)-9-amino-4-((2,6-difluoro-4-hydroxybenzyl)carbamoyl)-1-(isoindolin-2-yl)-2,11,16-trioxo-3,8,10,12,15-pentaazaoctadec-9-en-1-yl)phenoxy)propyl)amino)-2-oxoethyl)-3,6-dioxopiperazin-2-yl)ethyl)amino)-2-oxoethyl)-1,4,7,10-tetraazacyclododecane-1,4,7-triyl)triacetic acid], the Ki is < 10 nM.

`CCC(=O)NCCNC(=O)/N=C(/N)NCCC[C@@H](NC(=O)[C@H](c1ccccc1)N1Cc2cccc(NCCCNC(=O)C[C@H]3NC(=O)[C@@H](CCCNC(=O)CN4CCN(CC(=O)O)CCN(CC(=O)O)CCN(CC(=O)O)CC4)NC3=O)c2C1)C(=O)NCc1c(F)cc(O)cc1F` [compound 40, 2,2′,2″-(10-(2-((3-((2R,5R)-5-(2-((3-((2-((1S,4R,Z)-9-amino-4-((2,6-difluoro-4-hydroxybenzyl)carbamoyl)-2,11,16-trioxo-1-phenyl-3,8,10,12,15-pentaazaoctadec-9-en-1-yl)isoindolin-4-yl)amino)propyl)amino)-2-oxoethyl)-3,6-dioxopiperazin-2-yl)propyl)amino)-2-oxoethyl)-1,4,7,10-tetraazacyclododecane-1,4,7-triyl)triacetic acid]: the inhibition constant Ki is < 10 nM.

Regarding `CCNC(=O)/N=C(/N)NCCC[C@@H](NC(=O)[C@H](c1cccc(NCCCN)c1)N1Cc2ccccc2C1)C(=O)NCc1c(F)cc(O)cc1F` [66A, (R)-2-((S)-2-(3-((3-aminopropyl)amino)phenyl)-2-(isoindolin-2-yl)acetamido)-N-(2,6-difluoro-4-hydroxybenzyl)-5-((Z)-2-(ethylcarbamoyl)guanidino)pentanamide], the inhibition constant Ki is < 10 nM.

As for `CCC(=O)NCCNC(=O)/N=C(/N)NCCC[C@@H](NC(=O)[C@H](c1ccccc1)N1Cc2ccccc2C1)C(=O)NCc1ccc(O)cc1` [60A, (R)—N-(4-hydroxybenzyl)-2-((S)-2-(isoindolin-2-yl)-2-phenylacetamido)-5-((Z)-2-((2-propionamidoethyl)carbamoyl)guanidino)pentanamide], the Ki was < 10 nM.

Regarding `CCNC(=O)/N=C(/N)NCCC[C@@H](NC(=O)[C@H](c1cccc(NCCCNC(=O)CCOCCNC(=O)CN2CCN(CC(=O)O)CCN(CC(=O)O)CCN(CC(=O)O)CC2)c1)N1Cc2ccccc2C1)C(=O)NCc1c(F)cc(O)cc1F` [compound 14, 2,2′,2″-(10-(2-((2-(3-((3-((3-((11R,14S,Z)-6-amino-11-((2,6-difluoro-4-hydroxybenzyl)carbamoyl)-14-(isoindolin-2-yl)-4,13-dioxo-3,5,7,12-tetraazatetradec-5-en-14-yl)phenyl)amino)propyl)amino)-3-oxopropoxy)ethyl)amino)-2-oxoethyl)-1,4,7,10-tetraazacyclododecane-1,4,7-triyl)triacetic acid], the inhibition constant Ki is < 10 nM.

Take `CCC(=O)NCCNC(=O)/N=C(/N)NCCC[C@@H](NC(=O)[C@H](c1cccc(NCCCNc2c(NCCCCCCNC(=O)CN3CCN(CC(=O)O)CCN(CC(=O)O)CCN(CC(=O)O)CC3)c(=O)c2=O)c1)N1Cc2ccccc2C1)C(=O)NCc1ccc(O)cc1` [compound 2, 2,2′,2″-(10-(2-((6-((2-((3-((3-((1S,4R,Z)-9-amino-4-((4-hydroxybenzyl)carbamoyl)-1-(isoindolin-2-yl)-2,11,16-trioxo-3,8,10,12,15-pentaazaoctadec-9-en-1-yl)phenyl)amino)propyl)amino)-3,4-dioxocyclobut-1-en-1-yl)amino)hexyl)amino)-2-oxoethyl)-1,4,7,10-tetraazacyclododecane-1,4,7-triyl)triacetic acid-formic acid (1/1)]: the Ki was < 10 nM.

Consider `CCC(=O)NCCNC(=O)/N=C(/N)NCCC[C@@H](NC(=O)[C@H](c1ccc(OCCCNC(=O)C[C@H](O)C[C@H](O)CCNC(=O)CCC(=O)NCCNC(=O)CN2CCN(CC(=O)O)CCN(CC(=O)O)CCN(CC(=O)O)CC2)cc1)N1Cc2ccccc2C1)C(=O)NCc1c(F)cc(O)cc1F` [compound 53, 2,2′,2″-(10-((14R,16R)-22-(4-((1S,4R,Z)-9-amino-4-((2,6-difluoro-4-hydroxybenzyl)carbamoyl)-1-(isoindolin-2-yl)-2,11,16-trioxo-3,8,10,12,15-pentaazaoctadec-9-en-1-yl)phenoxy)-14,16-dihydroxy-2,7,10,18-tetraoxo-3,6,11,19-tetraazadocosyl)-1,4,7,10-tetraazacyclododecane-1,4,7-triyl)triacetic acid], for which the Ki is < 10 nM.

Consider `CCC(=O)NCCNC(=O)/N=C(/N)NCCC[C@@H](NC(=O)[C@H](c1cccc(NCCCN)c1)N1Cc2ccccc2C1)C(=O)NCc1ccc(O)cc1` [compound 63, (R)-2-((S)-2-(3-((3-aminopropyl)amino)phenyl)-2-(isoindolin-2-yl)acetamido)-N-(4-hydroxybenzyl)-5-((Z)-2-((2-propionamidoethyl)carbamoyl)guanidino)pentanamide], for which the inhibitory constant (Ki) was < 10 nM.

For the origin of these results see US20250213735A1, “NEUROPEPTIDE Y1 RECEPTOR (NPY1R) TARGETED THERAPEUTICS AND USES THEREOF” (Radionetics Oncology, Inc., priority 2023, published 2025).
